The conditions of series [1]: background statement; bound to thyroxine-binding globulin in human serum; cited from earlier work.
Series [2] concerns dogs with electrically induced ventricular fibrillation. Briefly: Phase Ia (methodology section): fibrillation/defibrillation in dogs with T3a or epinephrine. The series is classed as in vivo, dog. To be noted: individual dogs. An excerpt: Phase 1a was dedicated towards developing the basic methodology in the initial experiments, manual chest compression (CPR) and an internal defibrillator were employed. Induction of ventricular fibrillation and defibrillation were problematic with the internal electrodes because of the size mismatch: electrodes designed for humans being used in a smaller sized animal. In later experiments, the internal system was replaced with an LV pacing catheter connected to AC current via a step-down transformer (to induce ventricular fibrillation), and a new external, “hands-off” defibrillator. The manual chest compression was replaced with a THUMPER CPR system.
In the experiments, T3a was given 30 seconds before defibrillation. Preferably, T3a injection was given 60 to 90 seconds after defibrillation.
The results section was divided into Phases Ia (n=9) and Ib (n=8). The hemodynamic data were not consistently available in Phase Ia as there was no spontaneous or induced recovery except for 3 animals. Use of T3a was limited to only 3 dogs in this phase although epinephrine was used in 5 of them. This phase was dedicated towards the development of the Phase Ib parameters.
HVS-02 Fibrillator and Defibrillator were used in the tests. The operating instructions for the HVS-02 Fibrillator and Defibrillator can be found in the Manual for HVS-02 Fibrillator and Defibrillator.
Phase Ia was dedicated towards developing the basic methodology. […] In 3 animals, the hemodynamic data after defibrillation were less than the pre-fibrillatory data. […] In the experiments, internal defibrillator was used for the preliminary experiments and T3a was given just before defibrillation (30 seconds). Moreover, THUMPER CPR was used in the last 2 dogs instead of manual CPR. Thumper CPR worked well and it was used for the subsequent T3a experiments of Phase Ib. Manual chest compression was maintained for another 5 minutes after defibrillation and T3a or epinephrine injections. Bolus epinephrine injection (100 μg/kg) was used in 5 random dogs.

Series [3] shares this test system. Briefly: Phase Ib: cardiac resuscitation of dogs after induced ventricular fibrillation (Thumper CPR, external defibrillation, T3a bolus into right ventricle). The series is classed as in vivo, dog. The conditions noted are these: Post T3a (15 m), individual dogs. As to the method: All animals were fasted overnight and anesthesia was induced by intravenous sodium thiopental (Pentothal sodium 15-25 mg/kg). After intubation and ventilation by a ventilator (North American Dräger, Anesthesia and Ventilator, Model AVE-K, Serial No. 5033), anesthesia was maintained by 2% isoflurane (Isoflurane Vaporizer, R-Vapor, R-24045), and oxygen. ECG (Hewlett Packard Model No. 78346A). Oxygen saturation was monitored continuously. Preoperatively, all animals received Acepromazine maleate, 0.25-0.5 mg, I.M, lactated Ringer's solution was given intravenously (250 ml-350 ml/hr) during the procedure.
A 8.5Fr. catheter sheath was introduced into the right femoral artery and the side arm was connected to a fluid transducer for the continuous measurement of systemic arterial blood pressure. A 7Fr. Bipolar Multipurpose A-2 Electrode Catheter, 1 Lumelec™ (Lot no. 30395908, Catalog no. 528-724, Cordis, USA) tipped with pressure transducer with 2 side holes, 2 electrodes with an open end, 125 cm long, and 0.038 inch diameter, was advanced through the catheter sheath, and placed into the left ventricle. Continuous measurement of the systemic left ventricular pressure was obtained. Analog signals from the pressure transducers were obtained using an amplifier (PM-1000, CWE Inc., Ardmore, Pa.).
A 8.5Fr. catheter sheath was introduced into the right femoral vein and a 7Fr. MP A2, Multipurpose high flow catheter (catalog no. 527-742, Cordis, USA) with open end and side holes was placed into the right ventricle for T3a injections. Another 7Fr. catheter sheath was introduced into the left femoral artery and a 6Fr. pigtail catheter (catalog no. 527-654S, 110 cm, 155° angled) was placed into the descending aorta for the collection of aortic blood samples after T3a injections into the right ventricle. ECG (Hewlett-Packard, Model No. 78346A, Ser. No. 2320A00522) was continuously monitored. A temperature-monitoring device (T. SIN, Japan, designed for YSI series 400 thermistors), connected to the data acquisition system, was introduced into the external ears of all the animals to continuously measure body temperature.
The two distal ends of the 7Fr. Bipolar Multipurpose A-2 Electrode Catheter were connected to a Transformer. The electrical system can deliver 15V, 20 mA AC current through the pacing catheter system. The anesthesia was stopped. A venous blood sample from the right ventricle was obtained. Lid reflexes returned in several minutes.
The lid reflexes were checked by the finger method system and when frequent blinking of the lids was obtained, procedures for the ventricular fibrillation were carried out. […]
The force of compression necessary to achieve this baseline condition was recorded and not altered during subsequent provision of chest compressions. […]

The test system of series [4] is purified cultured cardiac myocytes. The conditions noted are these: 125I-T3 at 10^−8 M.
A short description of series [5]: Serum total T3 levels after T3a bolus during cardiac resuscitation in dogs. The series is classed as in vivo, dog. As to the method: Subsequent blood samples were obtained from the arterial circulation at 0.5 to 1.5 minutes after the bolus injection, and also at 15 to 20 minutes and 30 minutes, respectively.
Before sending the blood sample for immunoassay, in each experiment all the blood samples were collected in red-topped serum separator tubes. The tubes were centrifuged at 2500 rpm on a tabletop centrifuge for 10 minutes at 4° C. to separate the cells from the serum. The blood samples were then stored and frozen at −4° C.

The nature of series [6]: Pharmacokinetic studies in a rodent model: serum T3 after single intramuscular bolus. To be noted: rats; for Serum T3 level as % of the peak value: within 2 hours of injection. The series is classed as in vivo, rat.

Where “and” joins values, the source holds several entries; their conditions need not be identical. Equal values may be shown once.

Take `NC(Cc1cc(I)c(Oc2cc(I)c(O)c(I)c2)c(I)c1)C(=O)O` (stereo not shown) [T4]: in series [1], the Half-life was 140 to 170 h.
`CNC[C@H](O)c1ccc(O)c(O)c1` [Epi, epinephrine]: the Recover entry in series [2] (After D-Fib (+ drug)) is “No (2×) and Yes”. In series [2] (Post (15 m)), the “D. AoP” value was 76.1 mmHg; the Recover entry is “No (2×) and Yes”; the “S. AoP” value turned out to be 89.3 mmHg; the “S. LVP” value was determined as 110.2 mmHg. Besides, in series [3], the “D. AoP” value amounted to 64.0 mmHg, the Recover entry is recorded as “Yes”, the “S. AoP” value was found to be 82.7 mmHg and the “S. LVP” value was 103.0 mmHg.
For `N[C@@H](Cc1cc(I)c(Oc2ccc(O)c(I)c2)c(I)c1)C(=O)O` [T3, 3,5,3′-triiodothyronine], the “Time to detection of T3 in the nucleus of the cell” value in series [4] is not above 5 min. Also, in series [5] (4 μg T3/kg), the “Time serum T3 levels were maintained at high level” value was 30 min. Also, the “Serum T3 levels” value in series [5] (4 μg T3/kg, within 2 minutes of drug administration) is reported as “greater than 9000 ng/dl”. Further, the “Increase of serum T3 level over baseline” value in series [5] (bolus 4 μg/kg, one minute after injection, baseline 87±6 ng/dl) is 100 fold. The “Half-life of T3 in serum, 5 μg/kg versus 100 μg/kg” value in series [6] (i.m.) is given as “identical”. In addition, in series [6] (i.m., 24 hours after injection, within normal physiological range), the “Serum T3 level as % of peak values” is given as 10%. Further, the “Serum T3 level as % of the peak value” in series [6] (i.m., high dose 100 μg/Kg) came out at 64%; in series [6] (i.m., low dose 5 μg/Kg) it was 90%. Also, the “Time to peak serum T3 values” in series [6] (intramuscular, 5 μg/Kg and 100 μg/Kg) is not above 30 min.

These data come from US20050059574A1 (priority 2000, published 2005).
